Data reported in BindingDB's records for doi:10.1021/jm960799i (Dupont Pharmaceuticals, 1997).
Structures can show the parent of a compound that is named as a salt.

Target: Integrin alpha-IIb/beta-3 (Homo sapiens, UniProt P08514+P05106)
Experiment: In vitro inhibition of ADP-induced platelet aggregation in human platelet rich plasma (hPRP)

Chain of Integrin alpha-IIb/beta-3 (P05106 27-788 limits assumed): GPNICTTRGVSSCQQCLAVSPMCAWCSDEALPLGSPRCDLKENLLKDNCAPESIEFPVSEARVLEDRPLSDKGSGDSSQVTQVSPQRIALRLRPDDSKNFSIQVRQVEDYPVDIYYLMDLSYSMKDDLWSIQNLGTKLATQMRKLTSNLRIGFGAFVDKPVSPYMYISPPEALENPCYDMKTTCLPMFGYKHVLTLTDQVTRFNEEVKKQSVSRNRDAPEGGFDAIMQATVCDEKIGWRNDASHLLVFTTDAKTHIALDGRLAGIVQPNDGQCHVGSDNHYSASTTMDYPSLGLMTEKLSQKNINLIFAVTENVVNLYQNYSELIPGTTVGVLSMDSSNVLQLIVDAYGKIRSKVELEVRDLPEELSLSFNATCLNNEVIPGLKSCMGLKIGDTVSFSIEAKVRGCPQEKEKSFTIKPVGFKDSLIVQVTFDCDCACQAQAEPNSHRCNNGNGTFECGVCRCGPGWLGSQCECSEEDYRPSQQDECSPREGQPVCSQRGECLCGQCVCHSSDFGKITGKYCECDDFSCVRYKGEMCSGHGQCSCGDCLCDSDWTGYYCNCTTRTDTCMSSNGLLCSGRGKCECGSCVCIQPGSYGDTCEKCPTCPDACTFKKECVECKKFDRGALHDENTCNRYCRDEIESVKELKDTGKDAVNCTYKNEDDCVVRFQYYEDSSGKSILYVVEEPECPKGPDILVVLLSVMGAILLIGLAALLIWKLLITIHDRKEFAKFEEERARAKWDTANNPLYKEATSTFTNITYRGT
Chain of Integrin alpha-IIb/beta-3 (P08514 32-887 limits assumed): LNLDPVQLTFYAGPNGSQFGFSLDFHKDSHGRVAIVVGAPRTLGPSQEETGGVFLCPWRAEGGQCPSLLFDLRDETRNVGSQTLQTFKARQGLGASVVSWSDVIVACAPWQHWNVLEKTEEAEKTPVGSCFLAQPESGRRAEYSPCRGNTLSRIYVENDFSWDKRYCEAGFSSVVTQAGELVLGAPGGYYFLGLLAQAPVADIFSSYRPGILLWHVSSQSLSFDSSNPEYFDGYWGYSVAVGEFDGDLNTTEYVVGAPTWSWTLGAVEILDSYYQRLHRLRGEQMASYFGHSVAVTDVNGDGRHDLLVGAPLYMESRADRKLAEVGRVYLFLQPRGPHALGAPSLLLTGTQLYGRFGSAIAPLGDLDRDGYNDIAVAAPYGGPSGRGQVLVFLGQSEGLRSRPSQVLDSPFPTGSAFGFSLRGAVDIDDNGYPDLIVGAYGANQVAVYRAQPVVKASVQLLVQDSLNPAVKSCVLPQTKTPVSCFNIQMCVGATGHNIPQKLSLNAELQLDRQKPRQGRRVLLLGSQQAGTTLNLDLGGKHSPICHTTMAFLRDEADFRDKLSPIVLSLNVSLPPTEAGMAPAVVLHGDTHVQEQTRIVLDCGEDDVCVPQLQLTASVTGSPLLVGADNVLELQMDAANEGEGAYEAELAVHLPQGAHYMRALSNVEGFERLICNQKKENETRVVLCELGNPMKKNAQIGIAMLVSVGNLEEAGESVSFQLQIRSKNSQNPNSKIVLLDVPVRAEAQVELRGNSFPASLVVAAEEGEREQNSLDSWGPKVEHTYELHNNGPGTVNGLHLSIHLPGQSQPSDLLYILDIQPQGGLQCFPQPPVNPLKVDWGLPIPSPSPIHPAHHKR
Chain of Integrin alpha-IIb/beta-3 (P08514 891-1039 limits assumed): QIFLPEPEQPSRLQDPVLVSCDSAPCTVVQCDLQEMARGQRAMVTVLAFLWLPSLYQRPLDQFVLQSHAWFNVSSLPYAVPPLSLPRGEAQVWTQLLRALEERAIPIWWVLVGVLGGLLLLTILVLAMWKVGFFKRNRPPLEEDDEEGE

Row | Structure (SMILES) | IC50 [nM]
1 | N=C(N)c1ccc(C2=NO[C@@H](CC(=O)NCCC(=O)O)C2)cc1 | 60
2 | N=C(N)c1ccc(C2=NOC(CC(=O)N[C@@H](CC(=O)O)C(=O)N3CCc4ccccc4C3)C2)cc1 (stereo partly specified) | 170
3 | COC(=O)CC(CN(C)C)NC(=O)CC1CC(c2ccc(C(=N)N)cc2)=NO1 (stereo unspecified) [3-{2-[3-(4-Carbamimidoyl-phenyl)-4,5-dihydro-isoxazol-5-yl]-acetylamino}-4-dimethylamino-butyric acid methyl ester; TFA] | 2700
4 | N=C(N)c1ccc(C2=NOC(CC(=O)NC(CC(=O)O)CC(=O)O)C2)cc1 (stereo unspecified) [3-{2-[3-(4-Carbamimidoyl-phenyl)-4,5-dihydro-isoxazol-5-yl]-acetylamino}-pentanedioic acid; TFA] | 210
5 | CCCCOC(=O)N[C@H](CNC(=O)C[C@H]1CC(c2ccc(C(=N)N)cc2)=NO1)C(=O)O [(R)-2-Butoxycarbonylamino-3-{2-[(R)-3-(4-carbamimidoyl-phenyl)-4,5-dihydro-isoxazol-5-yl]-acetylamino}-propionic acid; hydrochloride] | 27
6 | CCCCOC(=O)N[C@H](CNC(=O)C[C@@H]1CC(c2ccc(C(=N)N)cc2)=NO1)C(=O)O [(R)-2-Butoxycarbonylamino-3-{2-[(S)-3-(4-carbamimidoyl-phenyl)-4,5-dihydro-isoxazol-5-yl]-acetylamino}-propionic acid; hydrochloride] | 100
7 | COC(=O)C[C@H](CN(C)C)NC(=O)CC1CC(c2ccc(C(=N)N)cc2)=NO1 (stereo partly drawn) [(R)-3-{2-[3-(4-Carbamimidoyl-phenyl)-4,5-dihydro-isoxazol-5-yl]-acetylamino}-4-dimethylamino-butyric acid methyl ester; TFA] | 7000
8 | N=C(N)c1ccc(C2=NOC(CC(=O)N[C@@H](CC(=O)O)Cc3ccccc3)C2)cc1 (stereo partly drawn) [(R)-3-{2-[3-(4-Carbamimidoyl-phenyl)-4,5-dihydro-isoxazol-5-yl]-acetylamino}-4-phenyl-butyric acid; TFA] | 78
9 | COC(=O)C[C@H](CN1CCCC1)NC(=O)CC1CC(c2ccc(C(=N)N)cc2)=NO1 (stereo partly drawn) [(R)-3-{2-[3-(4-Carbamimidoyl-phenyl)-4,5-dihydro-isoxazol-5-yl]-acetylamino}-4-pyrrolidin-1-yl-butyric acid methyl ester; TFA] | 3300
10 | COC(=O)C[C@@H](CC(C)C)NC(=O)CC1CC(c2ccc(C(=N)N)cc2)=NO1 (stereo partly drawn) [(R)-3-{2-[3-(4-Carbamimidoyl-phenyl)-4,5-dihydro-isoxazol-5-yl]-acetylamino}-5-methyl-hexanoic acid methyl ester; TFA] | 50
11 | N=C(N)c1ccc(C2=NOC(CC(=O)N[C@H](CCc3ccccn3)CC(=O)O)C2)cc1 (stereo partly drawn) [(R)-3-{2-[3-(4-Carbamimidoyl-phenyl)-4,5-dihydro-isoxazol-5-yl]-acetylamino}-5-pyridin-2-yl-pentanoic acid; TFA] | 180
12 | N=C(N)c1ccc(C2=NOC(CC(=O)N[C@H](CCc3cccnc3)CC(=O)O)C2)cc1 (stereo partly drawn) [(R)-3-{2-[3-(4-Carbamimidoyl-phenyl)-4,5-dihydro-isoxazol-5-yl]-acetylamino}-5-pyridin-3-yl-pentanoic acid; TFA] | 360
13 | N=C(N)c1ccc(C2=NOC(CC(=O)N[C@H](CCc3ccncc3)CC(=O)O)C2)cc1 (stereo partly drawn) [(R)-3-{2-[3-(4-Carbamimidoyl-phenyl)-4,5-dihydro-isoxazol-5-yl]-acetylamino}-5-pyridin-4-yl-pentanoic acid; TFA] | 500
14 | CC[C@H](CC(=O)O)NC(=O)C[C@H]1CC(c2ccc(C(=N)N)cc2)=NO1 [(R)-3-{2-[(R)-3-(4-Carbamimidoyl-phenyl)-4,5-dihydro-isoxazol-5-yl]-acetylamino}-pentanoic acid; TFA] | 54
15 | N=C(N)c1ccc(C2=NOC(CC(=O)NC[C@H](NC(=O)NCc3ccccc3)C(=O)O)C2)cc1 (stereo partly drawn) [(S)-2-(3-Benzyl-ureido)-3-{2-[3-(4-carbamimidoyl-phenyl)-4,5-dihydro-isoxazol-5-yl]-acetylamino}-propionic acid; TFA] | 67
16 | N=C(N)c1ccc(C2=NOC(CC(=O)NC[C@H](NC(=O)OCc3ccc(Br)cc3)C(=O)O)C2)cc1 (stereo partly drawn) [(S)-2-(4-Bromo-benzyloxycarbonylamino)-3-{2-[3-(4-carbamimidoyl-phenyl)-4,5-dihydro-isoxazol-5-yl]-acetylamino}-propionic acid; TFA] | 44
17 | CN(C[C@@H](C(=O)O)N(C)C(=O)OCc1ccccc1)C(=O)CC1CC(c2ccc(C(=N)N)cc2)=NO1 (stereo partly drawn) [(S)-2-(Benzyloxycarbonyl-methyl-amino)-3-({2-[3-(4-carbamimidoyl-phenyl)-4,5-dihydro-isoxazol-5-yl]-acetyl}-methyl-amino)-propionic acid; TFA] | 570
18 | CCCCS(=O)(=O)N[C@@H](CNC(=O)CC1CC(c2ccc(C(=N)N)cc2)=NO1)C(=O)O (stereo partly drawn) [(S)-2-(Butane-1-sulfonylamino)-3-{2-[3-(4-carbamimidoyl-phenyl)-4,5-dihydro-isoxazol-5-yl]-acetylamino}-propionic acid; TFA] | 31
19 | N=C(N)c1ccc(C2=NOC(CC(=O)NC[C@H](N)C(=O)O)C2)cc1 (stereo partly drawn) [(S)-2-Amino-3-{2-[3-(4-carbamimidoyl-phenyl)-4,5-dihydro-isoxazol-5-yl]-acetylamino}-propionic acid; TFA] | 91
20 | COC(=O)[C@H](CN(C)C(=O)CC1CC(c2ccc(C(=N)N)cc2)=NO1)NC(=O)OCc1ccccc1 (stereo partly drawn) [(S)-2-Benzyloxycarbonylamino-3-({2-[3-(4-carbamimidoyl-phenyl)-4,5-dihydro-isoxazol-5-yl]-acetyl}-methyl-amino)-propionic acid methyl ester; TFA] | 160
21 | O=C(CC1CC(CCC2CCNCC2)=NO1)NC[C@H](NC(=O)OCc1ccccc1)C(=O)O (stereo partly drawn) [(S)-2-Benzyloxycarbonylamino-3-{2-[3-(2-piperidin-4-yl-ethyl)-4,5-dihydro-isoxazol-5-yl]-acetylamino}-propionic acid; TFA] | 210
22 | C=CCCOC(=O)N[C@@H](CNC(=O)CC1CC(c2ccc(C(=N)N)cc2)=NO1)C(=O)O (stereo partly drawn) [(S)-2-But-3-enyloxycarbonylamino-3-{2-[3-(4-carbamimidoyl-phenyl)-4,5-dihydro-isoxazol-5-yl]-acetylamino}-propionic acid; TFA] | 44
23 | CCCCOC(=O)N[C@@H](CN(C)C(=O)CC1CC(c2ccc(C(=N)N)cc2)=NO1)C(=O)O (stereo partly drawn) [(S)-2-Butoxycarbonylamino-3-({2-[3-(4-carbamimidoyl-phenyl)-4,5-dihydro-isoxazol-5-yl]-acetyl}-methyl-amino)-propionic acid; TFA] | 200
24 | CCCCOC(=O)N[C@@H](CNC(=O)CC1CC(C2CCNCC2)=NO1)C(=O)O (stereo partly drawn) [(S)-2-Butoxycarbonylamino-3-[2-(3-piperidin-4-yl-4,5-dihydro-isoxazol-5-yl)-acetylamino]-propionic acid; TFA] | 6300
25 | CCCCOC(=O)N[C@@H](CNC(=O)CC1CC(CC2CCNCC2)=NO1)C(=O)O (stereo partly drawn) [(S)-2-Butoxycarbonylamino-3-[2-(3-piperidin-4-ylmethyl-4,5-dihydro-isoxazol-5-yl)-acetylamino]-propionic acid; TFA] | 10000
26 | CCCCOC(=O)N[C@@H](CNC(=O)CC1CC(CCC2CCNCC2)=NO1)C(=O)O (stereo partly drawn) [(S)-2-Butoxycarbonylamino-3-{2-[3-(2-piperidin-4-yl-ethyl)-4,5-dihydro-isoxazol-5-yl]-acetylamino}-propionic acid; TFA] | 180
